Source: paper PMC4050187 (FEBS Open Bio, 2014)

Molecular target: T1, Cj0511His (Campylobacter jejuni, UniProt Q0PB04)
T1 sequence (Q0PB04 36-444): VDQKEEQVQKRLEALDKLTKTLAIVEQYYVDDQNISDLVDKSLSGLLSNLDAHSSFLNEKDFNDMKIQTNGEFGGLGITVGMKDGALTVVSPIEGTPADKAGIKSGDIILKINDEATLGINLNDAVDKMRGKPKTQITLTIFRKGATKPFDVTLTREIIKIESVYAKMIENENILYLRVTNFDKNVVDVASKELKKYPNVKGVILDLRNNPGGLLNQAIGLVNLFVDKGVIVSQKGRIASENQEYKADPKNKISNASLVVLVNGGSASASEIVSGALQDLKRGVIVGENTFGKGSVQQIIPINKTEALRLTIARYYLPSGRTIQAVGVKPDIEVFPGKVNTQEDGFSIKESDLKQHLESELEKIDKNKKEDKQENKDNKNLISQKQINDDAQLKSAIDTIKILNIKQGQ
Test: colorimetric protease screening kit, absorbance at […] nm
Assay type: biochemical
Conditions: 1 mM inhibitor, 37 °C, 3 h, 0.25 μg protein in 50 μl

NCCc1ccc(S(=O)(=O)F)cc1 [AEBSF]
reduction in activity at 1 mM: reduction in activity in the presence of antipain, aprotin, AEBSF and PMSF inhibitors
